How the values were obtained:
MAO-B = target: T1, MAO-B (Homo sapiens, UniProt P27338); test: In vitro MAO-B inhibition assay (fluorometric); type: biochemical; conditions: for inhibition at 1000 µM: 10^–3 M; for inhibition at 100 µM: 10^–4 M; for inhibition at 10 µM: 10^–5 M; for inhibition at 1 µM: 10^–6 M; for inhibition at 0.1 µM: 10^–7 M; for inhibition at 0.01 µM: 10^–8 M; for inhibition at 0.001 µM: 10^–9 M
T1 sequence (P27338 1-520): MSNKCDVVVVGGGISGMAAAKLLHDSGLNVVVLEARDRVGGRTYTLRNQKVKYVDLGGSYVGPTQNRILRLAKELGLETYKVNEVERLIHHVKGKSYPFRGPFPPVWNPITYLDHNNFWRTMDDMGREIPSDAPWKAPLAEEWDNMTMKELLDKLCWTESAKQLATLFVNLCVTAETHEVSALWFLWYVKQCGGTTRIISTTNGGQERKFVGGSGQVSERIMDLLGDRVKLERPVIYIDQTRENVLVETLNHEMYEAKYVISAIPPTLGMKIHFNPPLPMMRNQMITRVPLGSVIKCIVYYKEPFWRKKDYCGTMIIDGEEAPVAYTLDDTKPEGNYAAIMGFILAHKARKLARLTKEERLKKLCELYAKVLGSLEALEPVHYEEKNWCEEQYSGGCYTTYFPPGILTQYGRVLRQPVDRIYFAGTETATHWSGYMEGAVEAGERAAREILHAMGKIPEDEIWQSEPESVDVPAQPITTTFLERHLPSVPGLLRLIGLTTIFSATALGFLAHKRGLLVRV

MAO-A = target: T2, MAO-A (Homo sapiens, UniProt P21397); test: In vitro MAO-A inhibition assay (fluorometric); type: biochemical; conditions: for inhibition at 1000 µM: 10^–3 M; for inhibition at 100 µM: 10^–4 M
T2 sequence (P21397 1-527): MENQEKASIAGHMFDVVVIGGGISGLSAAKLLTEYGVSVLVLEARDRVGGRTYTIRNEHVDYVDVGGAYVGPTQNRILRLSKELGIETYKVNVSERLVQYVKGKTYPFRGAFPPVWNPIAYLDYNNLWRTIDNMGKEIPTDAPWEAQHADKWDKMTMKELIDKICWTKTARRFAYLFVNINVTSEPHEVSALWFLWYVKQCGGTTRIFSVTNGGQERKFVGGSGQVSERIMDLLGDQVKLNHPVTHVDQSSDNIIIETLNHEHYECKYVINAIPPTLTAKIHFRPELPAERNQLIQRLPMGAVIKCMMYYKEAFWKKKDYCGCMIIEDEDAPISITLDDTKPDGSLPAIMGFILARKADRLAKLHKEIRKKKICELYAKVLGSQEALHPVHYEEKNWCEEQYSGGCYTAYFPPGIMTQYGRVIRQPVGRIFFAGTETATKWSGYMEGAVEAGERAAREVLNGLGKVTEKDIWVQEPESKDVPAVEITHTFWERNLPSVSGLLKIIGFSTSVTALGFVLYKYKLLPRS

AChE = AChE (Homo sapiens, UniProt P22303); test: biochemical; conditions: for inhibition at 1000 µM: 10^–3 M; for inhibition at 100 µM: 10^–4 M; for inhibition at 10 µM: 10^–5 M; for inhibition at 1 µM: 10^–6 M; for inhibition at 0.1 µM: 10^–7 M; for inhibition at 0.01 µM: 10^–8 M; for inhibition at 0.001 µM: 10^–9 M
Method: (§1) According to the modified Ellman approach outlined in our team’s earlier work, the AChE and BChE inhibitory activities of the obtained compounds were evaluated.[18]−[21]

BChE = BChE (Homo sapiens, UniProt P06276); test: biochemical; conditions: for inhibition at 1000 µM: 10^–3 M; for inhibition at 100 µM: 10^–4 M
Method: as §1

Beta Amyloid 1–42 (Aβ42) = target: T3, Beta Amyloid 1–42 (Aβ42) (Homo sapiens, UniProt P05067); test: Beta Amyloid 1–42 (Aβ42) inhibitor screening assay; type: biochemical; conditions: read-out: % β-amyloid plaque inhibition; for inhibition at 100 µM: 10^–4 M
T3 construct: The Beta Amyloid 1–42 (Aβ42) Ligand Screening Assay kit; purchased BioVision, Milpitas, CA
Description: The Beta Amyloid 1–42 (Aβ42) Ligand Screening Assay kit (BioVision, Milpitas, CA) technique based on the fluorometric approach served as the basis for the experimental process.[21],[28],[29]

Cytotoxicity test (MTT) = type: cell-based; conditions: NIH/3T3 mouse embryonic fibroblast cells (ATCC CRL-1658), NIH/3T3 mouse fibroblast healthy cell line
Method: The NIH/3T3 cells were incubated according to the manufacturer’s recommendations. In 96-well plates, NIH/3T3 cells were seeded at a density of 1 × 10^4 cells per well. The MTT test was conducted in line with the previously mentioned standards.[19],[22],[23],[28],[30]

T3 sequence (P05067 672-713 limits assumed): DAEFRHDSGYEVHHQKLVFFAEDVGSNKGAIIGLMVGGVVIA
BChE, sequence (P06276 29-602): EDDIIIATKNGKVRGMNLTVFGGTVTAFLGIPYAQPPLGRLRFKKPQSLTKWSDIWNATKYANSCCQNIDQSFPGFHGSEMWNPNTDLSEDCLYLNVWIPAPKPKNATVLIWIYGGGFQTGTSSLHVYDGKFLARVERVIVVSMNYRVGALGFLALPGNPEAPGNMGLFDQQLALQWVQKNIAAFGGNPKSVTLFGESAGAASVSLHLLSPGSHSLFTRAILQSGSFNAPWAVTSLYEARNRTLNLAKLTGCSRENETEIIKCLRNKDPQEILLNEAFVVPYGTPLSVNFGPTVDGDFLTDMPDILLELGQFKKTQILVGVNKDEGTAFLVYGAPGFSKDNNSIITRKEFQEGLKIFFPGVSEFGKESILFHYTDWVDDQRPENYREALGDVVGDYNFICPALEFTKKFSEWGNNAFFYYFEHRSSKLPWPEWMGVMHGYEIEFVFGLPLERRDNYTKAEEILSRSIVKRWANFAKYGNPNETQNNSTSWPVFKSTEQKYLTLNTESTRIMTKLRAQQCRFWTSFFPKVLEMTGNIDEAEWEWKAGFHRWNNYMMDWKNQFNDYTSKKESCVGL
AChE, sequence (P22303 32-614): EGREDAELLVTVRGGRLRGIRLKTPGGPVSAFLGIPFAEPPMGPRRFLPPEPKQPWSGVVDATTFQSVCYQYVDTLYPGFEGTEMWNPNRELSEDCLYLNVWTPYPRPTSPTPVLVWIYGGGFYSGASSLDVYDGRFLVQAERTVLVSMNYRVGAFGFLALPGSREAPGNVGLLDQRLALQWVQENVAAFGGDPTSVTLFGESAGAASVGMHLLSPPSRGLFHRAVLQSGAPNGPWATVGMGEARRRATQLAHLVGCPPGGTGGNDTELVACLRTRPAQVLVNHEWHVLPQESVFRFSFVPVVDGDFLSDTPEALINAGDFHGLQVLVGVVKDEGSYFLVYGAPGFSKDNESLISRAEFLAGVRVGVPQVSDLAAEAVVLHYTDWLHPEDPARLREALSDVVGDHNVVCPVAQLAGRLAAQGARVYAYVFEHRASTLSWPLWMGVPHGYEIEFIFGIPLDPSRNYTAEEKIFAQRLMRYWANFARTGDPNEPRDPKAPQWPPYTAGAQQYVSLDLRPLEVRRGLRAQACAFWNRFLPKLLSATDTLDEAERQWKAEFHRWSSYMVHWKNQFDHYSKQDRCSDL

Row | Compound | inhibition at 1000 µM (MAO-B) [%] | inhibition at 100 µM (MAO-B) [%] | inhibition at 1000 µM (MAO-A) [%] | inhibition at 100 µM (MAO-A) [%] | inhibition at 1000 µM (AChE) [%] | inhibition at 100 µM (AChE) [%] | inhibition at 1000 µM (BChE) [%] | inhibition at 100 µM (BChE) [%] | IC50 (Cytotoxicity test (MTT)) [µM] | IC50 (MAO-B) [µM] | inhibition at 10 µM (MAO-B) [%] | inhibition at 1 µM (MAO-B) [%] | inhibition at 0.1 µM (MAO-B) [%] | inhibition at 0.01 µM (MAO-B) [%] | inhibition at 0.001 µM (MAO-B) [%] | further results
1 | COc1ccc2c(c1)C(=O)/C(=C/c1ccc(NC(=O)CN3CCN(CCO)CC3)cc1)C2 [D17] | 84.6 ± 1.04 | 45.4 ± 0.669 | 82.45 ± 0.529 | 34.4 ± 0.508 | 73.7 ± 1.06 | 48.1 ± 0.669 | 75.532 ± 0.061 | 21.1 ± 0.804 |  |  |  |  |  |  |  | 
2 | COc1cc2c(cc1OC)C(=O)/C(=C/c1ccc(NC(=O)CN3CCN(CCO)CC3)cc1)C2 [D18] | 75.6 ± 1.2 | 47.34 ± 0.457 | 63.8 ± 0.683 | 28.39 ± 0.097 | 94.7 ± 1.97 | 45.3 ± 1.01 | 99.21 ± 0.887 | 41.8 ± 0.766 |  |  |  |  |  |  |  | 
3 | COc1ccc2c(c1)C(=O)/C(=C/c1ccc(NC(=O)CN3CCN(CCCO)CC3)cc1)C2 [D20] | 83.6 ± 1.04 | 41.6 ± 0.508 | 81.86 ± 0.243 | 43.29 ± 0.429 | 98.3 ± 1.11 | 91.1 ± 1.36 | 82.6 ± 1.05 | 20.1 ± 0.277 | 20 ± 1 |  |  |  |  |  |  | IC50 (AChE): 0.0311 ± 0.0011 µM; inhibition at 10 µM (AChE): 86.3 ± 1.25%; inhibition at 1 µM (AChE): 77.2 ± 0.975%; inhibition at 0.1 µM (AChE): 68.26 ± 0.633%; inhibition at 0.01 µM (AChE): 40.2 ± 0.528%; inhibition at 0.001 µM (AChE): 21.1 ± 0.429%; inhibition at 100 µM (Beta Amyloid 1–42 (Aβ42)): > 50%
4 | COc1ccc2c(c1)C/C(=C\c1ccc(NC(=O)CN3CCN(CCCN(C)C)CC3)cc1)C2=O [D25] | 79 ± 1.31 | 40.1 ± 0.63 | 80.38 ± 0.646 | 43.1 ± 0.646 | 92.6 ± 1.62 | 88.7 ± 1.19 | 95.7 ± 2.13 | 32 ± 0.667 | 13.8 ± 0.369 |  |  |  |  |  |  | IC50 (AChE): 0.183 ± 0.0074 µM; inhibition at 10 µM (AChE): 71.1 ± 1.01%; inhibition at 1 µM (AChE): 58.9 ± 0.952%; inhibition at 0.1 µM (AChE): 43.2 ± 0.548%; inhibition at 0.01 µM (AChE): 35.3 ± 0.417%; inhibition at 0.001 µM (AChE): 23.4 ± 0.389%
5 | COc1ccc2c(c1)C(=O)/C(=C/c1ccc(NC(=O)CN3CCN(CCCN(C)C)CC3)cc1)C2 [D26] | 94.3 ± 0.997 | 41.3 ± 0.874 | 95.12 ± 0.828 | 44.3 ± 0.914 | 93.3 ± 1.5 | 80.5 ± 1.21 | 56.2 ± 0.826 | 31.1 ± 0.415 | 21.8 ± 0.556 |  |  |  |  |  |  | IC50 (AChE): 0.176 ± 0.0062 µM; inhibition at 10 µM (AChE): 78.1 ± 1.02%; inhibition at 1 µM (AChE): 60.6 ± 0.974%; inhibition at 0.1 µM (AChE): 40.3 ± 0.598%; inhibition at 0.01 µM (AChE): 35.6 ± 0.758%; inhibition at 0.001 µM (AChE): 24.5 ± 0.622%
6 | C#CCN(C)CC(=O)Nc1ccc(/C=C2\Cc3cc(OC)ccc3C2=O)cc1 [D31] | 93.6 ± 1.48 | 88.7 ± 1.36 | 92.7 ± 1.31 | 23.9 ± 0.572 | 41.3 ± 0.966 | 27.1 ± 0.803 | 98.8 ± 2.69 | 41.6 ± 0.988 | 26 ± 1.28 | 0.0619 ± 0.0028 | 81.5 ± 1.24 | 75.9 ± 1.06 | 61.9 ± 1.01 | 35.5 ± 0.485 | 18.8 ± 0.511 | 
7 | C#CCN(C)CC(=O)Nc1ccc(/C=C2\Cc3ccc(OC)cc3C2=O)cc1 [D32] | 94.8 ± 1.42 | 89.6 ± 1.27 | 76.7 ± 1.67 | 29.7 ± 0.752 | 33.8 ± 0.885 | 26.4 ± 0.565 | 90.9 ± 1.29 | 24.7 ± 0.455 | 282 ± 7.04 | 0.0665 ± 0.0024 | 81.5 ± 1.8 | 72.7 ± 1.32 | 59.6 ± 0.977 | 34.2 ± 0.514 | 21.5 ± 0.429 | 
8 | C#CCN(C)CC(=O)Nc1ccc(/C=C2\Cc3cc(OC)c(OC)cc3C2=O)cc1 [D33] | 82.1 ± 1.19 | 39.3 ± 0.665 | 84.3 ± 1.29 | 29.9 ± 0.552 | 52.4 ± 1.24 | 32 ± 0.462 | 99 ± 1.75 | 46.6 ± 0.845 |  |  |  |  |  |  |  | 
9 | CCN(CC)CCN(CC)CC(=O)Nc1ccc(/C=C2\Cc3cc(OC)ccc3C2=O)cc1 [D40] |  | 88.8 ± 1.3 | 84.3 ± 1.27 | 41.3 ± 0.577 | 81.3 ± 1.11 | 41.6 ± 0.995 | 95.1 ± 1.24 | 44.3 ± 0.642 | 6.87 ± 0.297 | 0.203 ± 0.0098 | 80.6 ± 1.48 | 65.2 ± 0.975 | 43.1 ± 0.662 | 25.7 ± 0.425 | 19.9 ± 0.365 | 
10 | CCN(CC)CCN(CC)CC(=O)Nc1ccc(/C=C2\Cc3ccc(OC)cc3C2=O)cc1 [D41] | 90.2 ± 1.36 | 81.8 ± 1.29 | 82.8 ± 2.12 | 22.5 ± 0.622 | 81 ± 1.6 | 36.6 ± 0.399 | 99.15 ± 0.704 | 46.3 ± 1.37 | 5.89 ± 0.119 | 0.209 ± 0.0095 | 73.3 ± 1.42 | 65.4 ± 0.975 | 42.2 ± 0.563 | 32.7 ± 0.427 | 21.5 ± 0.385 | 
11 | CCN(CC)CCN(CC)CC(=O)Nc1ccc(/C=C2\Cc3cc(OC)c(OC)cc3C2=O)cc1 [D42] | 95.2 ± 1.62 | 40.2 ± 0.824 | 97.71 ± 0.411 | 40.2 ± 0.736 | 99.8 ± 2.01 | 44.2 ± 0.71 | 99.4 ± 1.29 | 45.91 ± 0.206 |  |  |  |  |  |  |  | 
12 | COc1cc(/C=C/C(=O)CC(=O)/C=C/c2ccc(O)c(OC)c2)ccc1O [curcumin, reference compound] |  |  |  |  |  |  |  |  |  |  |  |  |  |  |  | inhibition at 1000 µM (Beta Amyloid 1–42 (Aβ42); 10^–3 M): 95.9 ± 1.97%; inhibition at 100 µM (Beta Amyloid 1–42 (Aβ42)): 88.2 ± 2.17%
